How the values were obtained:
U937 cells [1] = assay: Mitochondrial membrane potential; type: cell-based, human
Protocol: Cytofluorometric analysis of the Δψm. To evaluate the Δψm, cells were incubated with the cationic lipophilic dye […] (CMXRos; 150 nM; Molecular Probes, Inc., Eugene, Oreg.). CMXRos is incorporated into mitochondria driven by the […] and reacts with thiol residues to form covalent thiol ester bonds. CMXRos fluorescence was recorded by flow cytometry in the FL3 channel. Background values of the apoptosis of control cells cultured without the CDDO-Me or in DMSO-solvent control (<10% CMXRos-low) were subtracted from the values obtained under the experimental conditions.
An early mitochondrial disruption has been observed in a number of different models of apoptosis. Changes in the cellular content of the cationic lipophilic fluorochrome CMXRos were determined by FACS analysis to measure loss of the mitochondrial membrane potential (Δψ) (Macho et al., 1996). […] Similarly, exposure of HL-60 to CDDO-Me (1 μM) for 2 and 4 hrs increased the number of cells with low JC-1 (57 and 60%) or CMXRos staining (46 and 57%), both assays measuring the decrease in Δψ. CDDO-Me-induced changes in the mitochondrial membrane potential of the cells preceded caspase activation and changes in the composition of the plasma membrane. […]

[2] = Murine model of angiogenesis, invasion promoted by ALL BM plasma; type: in vivo; conditions: 0.5 μM, n=8
Protocol: CDDO-Me. The formation of tube-like endothelial structures that are associated with angiogenesis was analyzed using a Matrigel system (Kubota et al., 1988). Capillary-like structure formation of bone marrow endothelium was inhibited by CDDO-Me. […] Furthermore, in a murine model of angiogenesis, angiogenic invasion promoted by ALL BM plasma was abrogated by CDDO-Me at 0.5 μM (n=8). Thus, CDDO-Me also has anti-angiogenic effects.

U937 cells [3] = assay: Active caspase detection with Phi-Phi-Lux; type: cell-based, human; conditions: 1 μM, 6 hours
Protocol: Detection of active caspases. The cell-permeable fluorogenic substrate Phi-Phi-Lux-G1D2 was administered to monitor caspase activity according to the manufacturer's recommendations (OncoImmunin, Inc, Kensington, Md.). Briefly, 10^6 cells were resuspended in 5 μL of substrate solution and incubated for 1 hour at 37° C. in the dark. After incubation, cells were washed, and the fluorescence emission was determined using the FL-1 channel of a Becton Dickinson FACScan flow cytometer.
CDDO-Me. […] Effects of CDDO-Me on the cleavage of caspase-3 were analyzed utilizing the fluorogenic substrate of caspase-3 Phi-Phi-Lux.

D9 cells, vector control = assay: Annexin V / cell number in D9 vector control cells; type: cell-based
Protocol: Annexin V staining. Cells were washed in phosphate-buffered saline (PBS) and resuspended in 100 μl of binding buffer containing Annexin V (Roche Diagnostic Corporation, Indianapolis, Ind.). Cells were analyzed by flow cytometry after the addition of propidium iodide (PI). Annexin V binds to those cells that express phosphatidylserine on the outer layer of the cell membrane, and PI stains the cellular DNA of those cells with a compromised cell membrane. This allows for live cells (unstained with either fluorochrome) to be discriminated from apoptotic cells (stained only with annexin V) and necrotic cells (stained with both annexin and PI).
To characterize the correlation between PPARγ and caspase activation, caspase-3 levels in D9 cells transfected with wt-PPARγ were analyzed. Six different single cell-derived clones were treated with 3 μM CDDO or vehicle controls for 5 hrs. Caspase-3 cleavage was analyzed by Western blot. A decrease in pro-caspase-3 with appearance of the cleaved product was readily observed in all clones. The degree of cleavage was higher in PPARγ-transfected than in vector control cells that express endogenous PPARγ. […] These changes correlated with plasma membrane changes: vector control=47.0% annexin V-positive cells; wt-PPARγ-transfected cells=73.3±1.1% annexin V (+), n=6. […] PPARγ-transfected cells were also more sensitive to PPARγ-ligand 15d-PGJ2 (41.00% vs 16.0% annexin (+) cells at 3 μM).
To characterize the correlation between PPARγ and caspase activation, caspase-3 levels in D9 cells transfected with wt-PPARγ were analyzed. Six different single cell-derived clones were treated with 3 μM CDDO or vehicle controls for 5 hrs. Caspase-3 cleavage was analyzed by Western blot. A decrease in pro-caspase-3 with appearance of the cleaved product was readily observed in all clones. The degree of cleavage was higher in PPARγ-transfected than in vector control cells that express endogenous PPARγ. […] These changes correlated with plasma membrane changes: vector control=47.0% annexin V-positive cells; wt-PPARγ-transfected cells=73.3±1.1% annexin V (+), n=6. […]

HL-60 cells [4] = assay: Differentiation by CD11b/CD14 flow cytometry; type: cell-based, human; conditions: 7 days, 0.5 μM
HL-60 cells [5] = assay: Apoptotic sub-G1 cells / apoptosis; type: cell-based, human
Protocol: Cell kinetic and DNA fragmentation studies. The cell cycle kinetics was determined by staining cells with acridine orange for cellular DNA and RNA content followed by flow cytometeric analysis as described. Samples were measured in a FACScan flow cytometer (Becton Dickinson, San Jose, Calif.) using the 488-nm line of a […] argon laser and filter settings for green (530 nm) (DNA) and red (585 nm) (RNA) fluorescence. Ten thousand events were stored in list mode for analysis. The percentage of cells in the “sub G1 peak” defined the proportion of apoptotic cells in the tested populations. […] Cell-cycle kinetics was analyzed using ModFit software (Verity Software House, Inc., Topsham, Me.).
Comparison of CDDO-compounds with other PPARγ ligands. […] In contrast, CDDO induced monocytic differentiation at 0.5 to 1.0 μM and apoptosis at 1 μM in HL-60 cells. […] These experiments will define the ability of CDDO to induce differentiation and apoptosis in comparison to other PPARγ ligands. Similar experiments are contemplated with CDDO-Me.

COC(=O)[C@]12CCC(C)(C)C[C@H]1[C@H]1C(=O)C=C3[C@@]4(C)C=C(C#N)C(=O)C(C)(C)[C@@H]4CC[C@@]3(C)[C@]1(C)CC2 [CDDO-Me]
cells with decreased Δψ (U937 cells [1]; CDDO-Me alone): 40% | cells with decreased Δψ (U937 cells [1]; after DEVD pretreatment): 4% | angiogenic invasion promoted by ALL BM plasma [2]: abrogated | Phi-Phi-Lux positive/PI negative cells (U937 cells [3]): 67%

CC1(C)CCC2(C(=O)O)CCC3(C)C(C(=O)C=C4C5(C)C=C(C#N)C(=O)C(C)(C)C5CCC43C)C2C1 (stereo not drawn) [CDDO, 2-cyano-3,12-dioxoolen-1,9-dien-28-oic acid]
annexin V-positive cells (D9 cells, vector control; 3 μM (CDDO: 5 hrs)): 47.0% | cell number (D9 cells, vector control; 3 μM CDDO): did not change | CD11b % (HL-60 cells [4]): 83.1% | apoptotic sub-G1 cells (HL-60 cells [5]; 1 μM, 48 hrs): 34.8% | concentration at which apoptosis was induced (HL-60 cells [5]; HL-60 cells): 1 µM
